In the experiment the test system is P388 leukemia ip, CD2F1 mice, survival T/C. Put plainly: NCI In Vivo Anticancer Drug Screen. Data for tumor model P388 Leukemia (intraperitoneal) in CD2F1 (CDF1) mice. Conditions: endpoint: median survival time, higher = longer survival. The gist of the method: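 Mice carrying the transplanted tumor received test compound or vehicle. Survival was recorded in each group, and the value is the treated-group measurement divided by that of the vehicle-treated control group.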

Setting [1] is: dose: 100.0 mg/kg/injection, schedule: Q01DX009 (ip), vehicle: saline.
[2] abbreviates: dose: 200.0 mg/kg/injection, schedule: Q01DX009 (ip), vehicle: saline.
The mark [3] stands for this setting: dose: 12.5 mg/kg/injection, schedule: Q01DX009 (ip), vehicle: saline with Tween-80.
Where [4] appears, read: dose: 25.0 mg/kg/injection, schedule: Q01DX009 (ip), vehicle: saline with Tween-80.
Where [5] appears, read: dose: 50.0 mg/kg/injection, schedule: Q01DX009 (ip), vehicle: saline with Tween-80.
Where [6] appears, read: dose: 50.0 mg/kg/injection, schedule: Q01DX005 (ip), vehicle: saline with Tween-80.
Where [7] appears, read: dose: 6.25 mg/kg/injection, schedule: Q01DX009 (ip), vehicle: saline with Tween-80.
Where [8] appears, read: dose: 50.0 mg/kg/injection, schedule: Q01DX005 (ip), vehicle: Klucel (hydroxypropylcellulose) (HPC).
Where [9] appears, read: dose: 100.0 mg/kg/injection, schedule: Q01DX005 (ip), vehicle: Klucel (hydroxypropylcellulose) (HPC).
Where [10] appears, read: dose: 200.0 mg/kg/injection, schedule: Q01DX005 (ip), vehicle: Klucel (hydroxypropylcellulose) (HPC).
[11] abbreviates: dose: 100.0 mg/kg/injection, schedule: Q01DX005 (ip), vehicle: saline with Tween-80.
Where [12] appears, read: dose: 200.0 mg/kg/injection, schedule: Q01DX005 (ip), vehicle: saline with Tween-80.
Setting [13] is: dose: 50.0 mg/kg/injection, schedule: Q01DX009 (ip), vehicle: Klucel (hydroxypropylcellulose) (HPC).
Where [14] appears, read: dose: 100.0 mg/kg/injection, schedule: Q01DX009 (ip), vehicle: Klucel (hydroxypropylcellulose) (HPC).
The mark [15] stands for this setting: dose: 60.0 mg/kg/injection, schedule: Q01DX005 (ip), vehicle: saline with Tween-80.
[16] abbreviates: dose: 120.0 mg/kg/injection, schedule: Q01DX005 (ip), vehicle: saline with Tween-80.
[17] abbreviates: dose: 240.0 mg/kg/injection, schedule: Q01DX005 (ip), vehicle: saline with Tween-80.

T/C data for 23 molecules are collected here from PubChem BioAssay AID330 (DTP/NCI, 2004).

The structures appear in SMILES notation. “And” between values parts separate entries of the source, which are not always exact repeats. Equal entries are not always repeated. Inconclusive results and toxic doses are left out.

In the case of `COc1cc(CO)ccc1O`, the T/C under setting [1] was 102 % of control and 105 % of control; the T/C under setting [2] was 89 % of control and 93 % of control; the T/C (dose: 400.0 mg/kg/injection, schedule: Q01DX009 (ip), vehicle: saline) was 99 % of control and 104 % of control; the T/C (dose: 600.0 mg/kg/injection, schedule: Q01DX009 (ip), vehicle: saline) was 107 % of control and 89 % of control.

For the molecule `COc1ccc(Oc2c(OC)cc(NCc3ccc(CN)cc3)c3ncccc23)cc1`, the T/C is, setting by setting: under setting [3], 110 % of control; under setting [4], 109 % of control; under setting [5], 109 % of control.

Regarding `CCN(CC)c1ccc2cc(S(=O)(=O)c3ccc(C)cc3)c(=O)oc2c1`, the T/C under setting [6] was 96 % of control.

With `COc1ccc(NCCOc2ccccc2Br)cc1`, the T/C (dose: 100.0 mg/kg/injection, schedule: Q04DX003 (ip), vehicle: other) is 90 % of control; the T/C (dose: 132.0 mg/kg/injection, schedule: Q01DX009 (ip), vehicle: other) was 123 % of control; the T/C (dose: 200.0 mg/kg/injection, schedule: Q01DX009 (ip), vehicle: other) is 104 % of control; the T/C (dose: 200.0 mg/kg/injection, schedule: Q04DX003 (ip), vehicle: other) is 90 % of control; the T/C (dose: 300.0 mg/kg/injection, schedule: Q01DX009 (ip), vehicle: other) was 100 % of control; the T/C (dose: 400.0 mg/kg/injection, schedule: Q04DX003 (ip), vehicle: other) is 95 % of control.

`Nc1ccc([N+](=O)[O-])c(N)n1`: the T/C is, setting by setting: (dose: 100.0 mg/kg/injection, schedule: Q04DX003 (ip), vehicle: saline with Tween-80) 100 % of control; (dose: 200.0 mg/kg/injection, schedule: Q04DX003 (ip), vehicle: saline with Tween-80) 107 % of control; (dose: 400.0 mg/kg/injection, schedule: Q04DX003 (ip), vehicle: saline with Tween-80) 97 % of control.

As for `CC(=O)[C@]1(O)Cc2c(O)c3c(c(O)c2[C@@H](OC2CC(N)C(O)C(C)O2)C1)C(=O)c1c(OCC(C)C)cccc1C3=O` (stereo partly specified), the T/C (dose: 3.13 mg/kg/injection, schedule: Q04DX003 (ip), vehicle: water) is 107 % of control and 110 % of control; the T/C (dose: 6.25 mg/kg/injection, schedule: Q04DX003 (ip), vehicle: water) was 105 % of control and 119 % of control; the T/C (dose: 12.5 mg/kg/injection, schedule: Q04DX003 (ip), vehicle: water) was 101 % of control; the T/C (dose: 25.0 mg/kg/injection, schedule: Q04DX003 (ip), vehicle: water) is 121 % of control; the T/C (dose: 50.0 mg/kg/injection, schedule: Q04DX003 (ip), vehicle: water) is 101 % of control and 89 % of control.

Regarding `O=C1C=C(N2CC2)c2ccccc2C1=O`, the T/C was 118 % of control under setting [7]; 110 % of control (dose: 6.25 mg/kg/injection, schedule: Q04DX003 (ip), vehicle: saline with Tween-80); 118 % of control (dose: 8.33 mg/kg/injection, schedule: Q01DX009 (ip), vehicle: saline with Tween-80); 120 % of control (dose: 12.5 mg/kg/injection, schedule: Q04DX003 (ip), vehicle: saline with Tween-80).

Turning to `CCCN(CCC)CC(=O)NC1c2ccccc2Oc2ccccc21`, the T/C reads like this: under setting [8], 101 % of control; under setting [9], 101 % of control; under setting [10], 90 % of control.

`CC(=O)Oc1cc(C)c(OC(C)=O)c(OC(C)=O)c1C`: the T/C (dose: 100.0 mg/kg/injection, schedule: Q04DX002 (ip), vehicle: Klucel (hydroxypropylcellulose) (HPC)) was 102 % of control and the T/C (dose: 200.0 mg/kg/injection, schedule: Q04DX002 (ip), vehicle: Klucel (hydroxypropylcellulose) (HPC)) was 90 % of control.

For the molecule `Cc1[nH]c2ccc(N(C)C)cc2c(=O)c1CN(Cc1ccccc1)Cc1c(C)[nH]c2ccc(N(C)C)cc2c1=O`, the T/C was 94 % of control (dose: 7.5 mg/kg/injection, schedule: Q01DX005 (ip), vehicle: Klucel (hydroxypropylcellulose) (HPC)); 89 % of control (dose: 15.0 mg/kg/injection, schedule: Q01DX005 (ip), vehicle: Klucel (hydroxypropylcellulose) (HPC)); 86 % of control (dose: 30.0 mg/kg/injection, schedule: Q01DX005 (ip), vehicle: Klucel (hydroxypropylcellulose) (HPC)).

On to `O=c1c(Br)cn(Cc2ccccc2)cc1Br`, for which the T/C is 92 % of control (dose: 50.0 mg/kg/injection, schedule: Q01DX005 (ip), vehicle: saline); 95 % of control (dose: 100.0 mg/kg/injection, schedule: Q01DX005 (ip), vehicle: saline); 90 % of control (dose: 200.0 mg/kg/injection, schedule: Q01DX005 (ip), vehicle: saline).

For the molecule `c1ccc(/C2=N\OCCCOc3ccccc32)cc1`, the T/C runs as follows: under setting [8], 88 % of control; under setting [9], 87 % of control; under setting [10], 87 % of control.

As for `Cc1cc2c(c(Br)c1O)Oc1c(cc(C)c(O)c1Br)C21OC(=O)c2ccccc21`, the T/C is 110 % of control under setting [6], 106 % of control under setting [11] and 105 % of control under setting [12].

As to `CCCCCCCCCCCCCOC(=O)CC(C(=O)OCCCCCCCCCCCCC)S(=O)(=O)O` (stereo unspecified), the T/C runs as follows: under setting [13], 99 % of control; under setting [14], 95 % of control.

On to `O=C(Nc1cccc2c1C(=O)c1cccc(Nc3cccc4c3C(=O)c3cccc(NC(=O)c5ccccc5)c3C4=O)c1C2=O)c1ccccc1`, for which the T/C is 101 % of control and 94 % of control under setting [6]; 88 % of control and 92 % of control under setting [11]; 93 % of control under setting [12].

As to `N#Cc1nc(CC(=O)c2ccccc2)c(CC(=O)c2ccccc2)nc1C#N`, the T/C was 100 % of control under setting [15]; 106 % of control and 94 % of control under setting [16]; 100 % of control and 91 % of control under setting [17].

Take `COc1cc2c(c(OC)c1OC)-c1ccc(SC)c(=O)cc1[C@@H](NC(=O)Oc1ccccc1)CC2`: under “dose: 5.0 mg/kg/injection, schedule: Q01DX009 (ip), vehicle: Klucel (hydroxypropylcellulose) (HPC)”, the T/C is 164 % of control.

Take `Cc1c(N=O)c(-c2ccccc2)n(O)[n+]1[O-]`: the T/C was 102 % of control under setting [15], 101 % of control under setting [16] and 102 % of control under setting [17].

Regarding `COC(=O)c1cc(=O)n(-c2ccccc2F)c(SC)n1`, the T/C was 105 % of control (dose: 25.0 mg/kg/injection, schedule: Q04DX003 (ip), vehicle: Klucel (hydroxypropylcellulose) (HPC)); 104 % of control (dose: 50.0 mg/kg/injection, schedule: Q04DX003 (ip), vehicle: Klucel (hydroxypropylcellulose) (HPC)); 106 % of control (dose: 100.0 mg/kg/injection, schedule: Q04DX003 (ip), vehicle: Klucel (hydroxypropylcellulose) (HPC)).

For `Cc1ccc(S(=O)(=O)N/N=C/c2ccccc2Cl)cc1`, the T/C is, setting by setting: (dose: 6.25 mg/kg/injection, schedule: Q01DX009 (ip), vehicle: Klucel (hydroxypropylcellulose) (HPC)) 94 % of control; (dose: 12.5 mg/kg/injection, schedule: Q01DX009 (ip), vehicle: Klucel (hydroxypropylcellulose) (HPC)) 98 % of control; (dose: 25.0 mg/kg/injection, schedule: Q01DX009 (ip), vehicle: Klucel (hydroxypropylcellulose) (HPC)) 106 % of control; under setting [4], 106 % of control; under setting [13], 104 % of control; under setting [5], 104 % of control. The T/C is 106 % of control under setting [14]; 106 % of control (dose: 100.0 mg/kg/injection, schedule: Q01DX009 (ip), vehicle: saline with Tween-80); 100 % of control (dose: 200.0 mg/kg/injection, schedule: Q01DX009 (ip), vehicle: saline with Tween-80).

In the case of `C#CC(=O)O`, the T/C runs as follows: under setting [7], 111 % of control; under setting [3], 95 % of control; under setting [4], 92 % of control.

`CSc1nc(N)c2cnn(C3CCCO3)c2n1` (stereo unspecified): the T/C is, setting by setting: under setting [11], 102 % of control; under setting [12], 94 % of control; (dose: 400.0 mg/kg/injection, schedule: Q01DX005 (ip), vehicle: saline with Tween-80) 97 % of control.

On to `O=C1CC(c2ccc(Cl)cc2)OC(c2ccc(Cl)cc2)C1` (stereo unspecified), for which the T/C (dose: 50.0 mg/kg/injection, schedule: Q01DX009 (ip), vehicle: saline) is 104 % of control; the T/C under setting [1] is 102 % of control; the T/C under setting [2] is 98 % of control.
